Reference: PubChem BioAssay AID330 (DTP/NCI, 2004)
Where “and” joins values, the source holds several entries; their conditions need not be identical. Equal entries are not always repeated. Toxic doses and inconclusive results are not listed. Peptide text beside a SMILES is read from it.

System: P388 leukemia ip, CD2F1 mice, survival T/C
Assay: NCI In Vivo Anticancer Drug Screen. Data for tumor model P388 Leukemia (intraperitoneal) in CD2F1 (CDF1) mice
Details: endpoint: median survival time, higher = longer survival
Method in brief: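 Mice carrying the transplanted tumor received test compound or vehicle. Survival was recorded in each group, and the value is the treated-group measurement divided by that of the vehicle-treated control group.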

[1] = dose: 50.0 mg/kg/injection, schedule: Q01DX005 (ip), vehicle: Klucel (hydroxypropylcellulose) (HPC)
[2] = dose: 100.0 mg/kg/injection, schedule: Q01DX005 (ip), vehicle: Klucel (hydroxypropylcellulose) (HPC)
[3] = dose: 200.0 mg/kg/injection, schedule: Q01DX005 (ip), vehicle: Klucel (hydroxypropylcellulose) (HPC)
[4] = dose: 50.0 mg/kg/injection, schedule: Q01DX005 (ip), vehicle: saline with Tween-80
[5] = dose: 100.0 mg/kg/injection, schedule: Q01DX005 (ip), vehicle: saline with Tween-80
[6] = dose: 200.0 mg/kg/injection, schedule: Q01DX005 (ip), vehicle: saline with Tween-80
[7] = dose: 60.0 mg/kg/injection, schedule: Q01DX005 (ip), vehicle: Klucel (hydroxypropylcellulose) (HPC)
[8] = dose: 120.0 mg/kg/injection, schedule: Q01DX005 (ip), vehicle: Klucel (hydroxypropylcellulose) (HPC)
[9] = dose: 240.0 mg/kg/injection, schedule: Q01DX005 (ip), vehicle: Klucel (hydroxypropylcellulose) (HPC)
[10] = dose: 100.0 mg/kg/injection, schedule: Q04DX003 (ip), vehicle: saline
[11] = dose: 200.0 mg/kg/injection, schedule: Q04DX003 (ip), vehicle: saline
[12] = dose: 400.0 mg/kg/injection, schedule: Q04DX003 (ip), vehicle: saline
[13] = dose: 50.0 mg/kg/injection, schedule: Q01DX009 (ip), vehicle: saline with Tween-80
[14] = dose: 100.0 mg/kg/injection, schedule: Q01DX009 (ip), vehicle: saline with Tween-80
[15] = dose: 200.0 mg/kg/injection, schedule: Q01DX009 (ip), vehicle: saline with Tween-80
[16] = dose: 50.0 mg/kg/injection, schedule: Q04DX003 (ip), vehicle: saline sonified
[17] = dose: 100.0 mg/kg/injection, schedule: Q04DX003 (ip), vehicle: saline sonified

Structure (SMILES): O=C(Cc1cccc2c(=O)cc(-c3ccccc3)oc12)OCCO
- T/C (dose: 25.0 mg/kg/injection, schedule: Q01DX005 (ip), vehicle: Klucel (hydroxypropylcellulose) (HPC)): 100 % of control
- T/C [1]: 103 % of control and 91 % of control
- T/C [2]: 100 % of control and 110 % of control
- T/C [3]: 120 % of control

Structure (SMILES): O=C1CSC(c2c(F)cccc2F)N1c1nncs1 (centres undefined)
- T/C [4]: 98 % of control
- T/C [5]: 100 % of control
- T/C [6]: 98 % of control

Structure (SMILES): C[Si]1(C)CC[Si](C)(C)S1
- T/C [4]: 103 % of control
- T/C [5]: 108 % of control

Structure (SMILES): CC(C)NC(C#N)C(C)C (centres undefined)
- T/C (dose: 3.12 mg/kg/injection, schedule: Q01DX005 (ip), vehicle: Klucel (hydroxypropylcellulose) (HPC)): 99 % of control
- T/C (dose: 6.25 mg/kg/injection, schedule: Q01DX005 (ip), vehicle: Klucel (hydroxypropylcellulose) (HPC)): 108 % of control
- T/C (dose: 12.5 mg/kg/injection, schedule: Q01DX005 (ip), vehicle: Klucel (hydroxypropylcellulose) (HPC)): 102 % of control

Structure (SMILES): O=C(/C=C/c1c[nH]c2ccccc12)c1ccccc1O
- T/C (dose: 60.0 mg/kg/injection, schedule: Q01DX005 (ip), vehicle: saline with Tween-80): 98 % of control
- T/C (dose: 120.0 mg/kg/injection, schedule: Q01DX005 (ip), vehicle: saline with Tween-80): 90 % of control
- T/C (dose: 240.0 mg/kg/injection, schedule: Q01DX005 (ip), vehicle: saline with Tween-80): 98 % of control

Structure (SMILES): CC(=O)C(/C=N\N=C(/C)c1cn[nH]c1C)=C(/C)O
- T/C [7]: 96 % of control
- T/C [8]: 92 % of control
- T/C [9]: 89 % of control

Structure (SMILES): CCOP(=O)(/C=C1/C(=O)OCC1(C)C)OCC
- T/C [10]: 100 % of control
- T/C [11]: 101 % of control
- T/C [12]: 104 % of control

Structure (SMILES): COc1cc(C2c3cc4c(cc3CC3COC(=O)N32)OCO4)cc(OC)c1OC (centres undefined)
- T/C (dose: 3.75 mg/kg/injection, schedule: Q01DX005 (ip), vehicle: Klucel (hydroxypropylcellulose) (HPC)): 98 % of control and 92 % of control
- T/C (dose: 7.5 mg/kg/injection, schedule: Q01DX005 (ip), vehicle: Klucel (hydroxypropylcellulose) (HPC)): 88 % of control and 91 % of control and 92 % of control
- T/C (dose: 15.0 mg/kg/injection, schedule: Q01DX005 (ip), vehicle: Klucel (hydroxypropylcellulose) (HPC)): 92 % of control (2×) and 97 % of control

Structure (SMILES): COc1ccc([Si](C)(C)CNCCSS(=O)(=O)O)cc1
- T/C [13]: 90 % of control
- T/C [14]: 95 % of control
- T/C [15]: 90 % of control

Structure (SMILES): NC(Cc1ccccc1)C(=O)NC(CC(=O)O)C(=O)O (stereo not drawn) (H-Phe-Asp-OH; configuration not given here)
- T/C [1]: 99 % of control
- T/C [2]: 99 % of control
- T/C [3]: 109 % of control

Structure (SMILES): c1ccc(Nc2ccncc2)cc1
- T/C (dose: 1.56 mg/kg/injection, schedule: Q01DX009 (ip), vehicle: saline): 95 % of control
- T/C (dose: 3.12 mg/kg/injection, schedule: Q01DX009 (ip), vehicle: saline): 95 % of control
- T/C (dose: 6.25 mg/kg/injection, schedule: Q01DX009 (ip), vehicle: saline): 100 % of control
- T/C (dose: 12.5 mg/kg/injection, schedule: Q01DX009 (ip), vehicle: saline): 100 % of control
- T/C (dose: 25.0 mg/kg/injection, schedule: Q04DX003 (ip), vehicle: saline sonified): 100 % of control
- T/C [16]: 90 % of control
- T/C [17]: 100 % of control

Structure (SMILES): CC1COCCOCCOCC(C)OC(=O)COCC(=O)O1 (centres undefined)
- T/C (dose: 50.0 mg/kg/injection, schedule: Q01DX009 (ip), vehicle: Klucel (hydroxypropylcellulose) (HPC)): 99 % of control
- T/C (dose: 100.0 mg/kg/injection, schedule: Q01DX009 (ip), vehicle: Klucel (hydroxypropylcellulose) (HPC)): 101 % of control
- T/C (dose: 200.0 mg/kg/injection, schedule: Q01DX009 (ip), vehicle: Klucel (hydroxypropylcellulose) (HPC)): 105 % of control

Structure (SMILES): CC(=O)N1CCCC2=C1CCCCCCCCCC2
- T/C [10]: 99 % of control
- T/C [11]: 105 % of control
- T/C [12]: 96 % of control

Structure (SMILES): CCc1nc(N)nc(N)c1-c1ccc(NCCc2ccccc2)c([N+](=O)[O-])c1
- T/C [1]: 101 % of control
- T/C [2]: 113 % of control and 124 % of control
- T/C [3]: 162 % of control
- T/C (dose: 400.0 mg/kg/injection, schedule: Q01DX005 (ip), vehicle: Klucel (hydroxypropylcellulose) (HPC)): 98 % of control

Structure (SMILES): CCN(CC(O)CN(CC1CO1)c1ccccc1)c1ccccc1 (centres undefined)
- T/C (dose: 100.0 mg/kg/injection, schedule: Q04DX002 (ip), vehicle: saline with Tween-80): 100 % of control
- T/C (dose: 200.0 mg/kg/injection, schedule: Q04DX002 (ip), vehicle: saline with Tween-80): 94 % of control
- T/C (dose: 400.0 mg/kg/injection, schedule: Q04DX002 (ip), vehicle: saline with Tween-80): 101 % of control

Structure (SMILES): CCN1/C(=C/C2=C([O-])C(=C\c3ccc4ccccc4[n+]3CC)/C2=O)C=Cc2ccccc21
- T/C [7]: 101 % of control
- T/C [8]: 97 % of control
- T/C [9]: 86 % of control

Structure (SMILES): C[N+]1([O-])CC[N+](C)([O-])CC1 (centres undefined)
- T/C (dose: 60.0 mg/kg/injection, schedule: Q01DX005 (ip), vehicle: saline): 103 % of control
- T/C (dose: 120.0 mg/kg/injection, schedule: Q01DX005 (ip), vehicle: saline): 96 % of control
- T/C (dose: 240.0 mg/kg/injection, schedule: Q01DX005 (ip), vehicle: saline): 100 % of control

Structure (SMILES): Cc1cc2c(c3ncccc13)OCN(Cc1ccc(Cl)c(Cl)c1)C2
- T/C [13]: 100 % of control
- T/C [14]: 98 % of control
- T/C [15]: 100 % of control

Structure (SMILES): CCN(CC)CCCC(C)Sc1ccnc2cc(Cl)ccc12 (centres undefined)
- T/C [4]: 95 % of control
- T/C [5]: 101 % of control
- T/C [6]: 106 % of control

Structure (SMILES): C/C(=N/NC(=O)c1ccccc1)c1ccc(Cl)cc1Cl
- T/C (dose: 12.5 mg/kg/injection, schedule: Q01DX009 (ip), vehicle: Klucel (hydroxypropylcellulose) (HPC)): 90 % of control

Structure (SMILES): O=CN(O)CC(=O)O
- T/C [13]: 95 % of control
- T/C [16]: 104 % of control
- T/C [14]: 104 % of control
- T/C (dose: 100.0 mg/kg/injection, schedule: Q01DX009 (ip), vehicle: saline): 100 % of control
- T/C [17]: 100 % of control
- T/C [10]: 100 % of control
- T/C [15]: 95 % of control
- T/C (dose: 200.0 mg/kg/injection, schedule: Q01DX009 (ip), vehicle: saline): 109 % of control
- T/C (dose: 200.0 mg/kg/injection, schedule: Q04DX003 (ip), vehicle: saline sonified): 100 % of control
- T/C [11]: 108 % of control
- T/C (dose: 400.0 mg/kg/injection, schedule: Q01DX009 (ip), vehicle: saline with Tween-80): 100 % of control
- T/C (dose: 400.0 mg/kg/injection, schedule: Q01DX009 (ip), vehicle: saline): 100 % of control
- T/C (dose: 400.0 mg/kg/injection, schedule: Q04DX003 (ip), vehicle: saline sonified): 100 % of control
- T/C [12]: 91 % of control

Structure (SMILES): COc1ccc(/C=C/C(C)=N/NC(N)=S)cc1
- T/C (dose: 6.0 mg/kg/injection, schedule: Q01DX005 (ip), vehicle: Klucel + Tween-80): 113 % of control
- T/C (dose: 12.0 mg/kg/injection, schedule: Q01DX005 (ip), vehicle: Klucel + Tween-80): 104 % of control

Structure (SMILES): Fc1ccc2cc3cccc[n+]3cc2c1
- T/C (dose: 6.25 mg/kg/injection, schedule: Q01DX005 (ip), vehicle: saline with Tween-80): 100 % of control
- T/C (dose: 12.5 mg/kg/injection, schedule: Q01DX005 (ip), vehicle: saline with Tween-80): 99 % of control
- T/C (dose: 25.0 mg/kg/injection, schedule: Q01DX005 (ip), vehicle: saline with Tween-80): 99 % of control

Structure (SMILES): Cc1ccc(C2CCC(C#N)=CN2C)cc1 (centres undefined)
- T/C (dose: 50.0 mg/kg/injection, schedule: Q01DX005 (ip), vehicle: Klucel + Tween-80): 94 % of control
- T/C (dose: 100.0 mg/kg/injection, schedule: Q01DX005 (ip), vehicle: Klucel + Tween-80): 98 % of control
- T/C (dose: 200.0 mg/kg/injection, schedule: Q01DX005 (ip), vehicle: Klucel + Tween-80): 100 % of control

Structure (SMILES): CC1(CO)COC(c2ccc(Cl)cc2)N1 (centres undefined)
- T/C (dose: 50.0 mg/kg/injection, schedule: Q01DX005 (ip), vehicle: acetone): 106 % of control
- T/C (dose: 100.0 mg/kg/injection, schedule: Q01DX005 (ip), vehicle: acetone): 106 % of control
- T/C (dose: 200.0 mg/kg/injection, schedule: Q01DX005 (ip), vehicle: acetone): 112 % of control

Structure (SMILES): COC(=O)C1CCCC(Sc2ccccc2)C1=O (centres undefined)
- T/C (dose: 25.0 mg/kg/injection, schedule: Q01DX009 (ip), vehicle: saline with Tween-80): 101 % of control
- T/C [13]: 101 % of control
- T/C [14]: 109 % of control

Structure (SMILES): COc1ccc(N(N=O)c2c(C)cc(C)cc2C)c(C(=O)O)c1
- T/C [1]: 96 % of control
- T/C [2]: 96 % of control
- T/C [3]: 98 % of control
